“Also recorded” adds a separate entry of the source.
Columns and labels:
Assay type in all cases: in vivo
C57B/6 male mice [1] = assay: Amphetamine-induced stereotypy (open field locomotion); conditions: for AMBULATIONS / FINE MOVEMENTS: 30 μg/kg PO, amphetamine 8 mg/kg; for FINE MOVEMENTS: scored 60 min post-amphetamine
Method: C57B/6 male mice were placed in an open field apparatus and allowed to habituate for 15-30 minutes. The compound of the invention (at 30 μg/kg) was administered PO at 0, +15, or +30 minutes relative to amphetamine (8 mg/kg) administration, and locomotor behavior was scored for an additional 60 minutes post-amphetamine. Amphetamine was administered IP. Locomotion was separated into “fine movements” (indicative of stereotypy) and “ambulations” (indicative of hyperactivity). Amphetamine induced stereotypy. […] Locomotion was separated into “fine movements” (indicative of stereotypy) and “ambulations” (indicative of hyperactivity). Prepulse inhibition. Sprague Dawley male rats (˜200 g-300 g) were used (n=8/group). […] Each rat was individually placed in the startle chamber 10 minutes post-phencyclidine or post-amphetamine or post-vehicle. Testing was carried out using the SR-Lab Startle Response system by San Diego Instruments. Each rat was allowed to acclimate for a 5 minute period with a 65-dB background noise continuously present throughout the session. […] A sensor in the chamber recorded the startle responses following all stimuli presented.

Male Sprague-Dawley rats = assay: Pre-pulse inhibition of the startle response (PPI) disrupted by psychostimulants
Method: Male Sprague-Dawley rats were treated with Drug 1 (IP) followed 20 minutes later by Drug 2 (IP or SC as indicated in the methods). Ten minutes following administration of Drug 2 (except in the case of apomorphine where animals were immediately tested post-apomorphine), rats were placed in the startle chamber and allowed 5 minutes to acclimate with 65-dB background white noise. The acclimation period was followed by a ˜15 minute test session during which time rats were presented with 40 ms 120 dB startle pulses alone or preceded 100 ms by a pre-pulse 3, 6, or 12 dB above background. These four types of active stimuli were presented in pseudorandom order along with no-stimulation trials to assess baseline activity throughout testing. An average of 20 s separated each trial type. The maximum startle magnitude was measured for every trial type. PPI for each animal was calculated as the percentage startle magnitude to the pre-pulse+pulse or no-stimulation trials relative to the pulse-alone startle magnitude. Amphetamine induced stereotypy. […] Locomotion was separated into “fine movements” (indicative of stereotypy) and “ambulations” (indicative of hyperactivity). Prepulse inhibition. […] Each rat was individually placed in the startle chamber 10 minutes post-phencyclidine or post-amphetamine or post-vehicle. Testing was carried out using the SR-Lab Startle Response system by San Diego Instruments. Each rat was allowed to acclimate for a 5 minute period with a 65-dB background noise continuously present throughout the session. […] A sensor in the chamber recorded the startle responses following all stimuli presented.

C57B/6 male mice [2] = assay: Amphetamine-induced stereotypy (open field locomotion); conditions: 30 μg/kg PO, time post-amphetamine −15 min, amphetamine 8 mg/kg

Cc1cccc(C(C)c2c[nH]c(=S)[nH]2)c1C (stereo not shown) [AGN-203818, 4-(1-(2,3-dimethylphenyl)ethyl)-1H-imidazole-2(3H)-thione]
AMBULATIONS (C57B/6 male mice [1]; time post-amphetamine 0 min): 7337 ± 890.0 | FINE MOVEMENTS (C57B/6 male mice [1]; time post-amphetamine 0 min): 762.2 ± 89.4^⋄ | AMBULATIONS (C57B/6 male mice [1]; time post-amphetamine 15 min): 5747.3 ± 874.4 | FINE MOVEMENTS (C57B/6 male mice [1]; time post-amphetamine 15 min): 1066.5 ± 37.8^⋄ | AMBULATIONS (C57B/6 male mice [1]; time post-amphetamine 30 min): 7201.2 ± 1669.4 | FINE MOVEMENTS (C57B/6 male mice [1]; time post-amphetamine 30 min): 1297.8 ± 85.3^⋄ | oral activity (in words) (C57B/6 male mice [1]; administered PO): orally active | effect on amphetamine-induced stereotypy (in words) (C57B/6 male mice [1]; high-dose psychostimulant administration, listed as compound of the invention): effectively inhibit stereotypy; also recorded: selectively decreased amphetamine-induced stereotypy | % PPI PP3 (Male Sprague-Dawley rats; Compound 0.01 mg/kg as Drug 1, Drug 2 PCP (2 mg/kg, s.c.), pre-pulse 3 dB): 20.3 ± 10.6% | % PPI PP6 (Male Sprague-Dawley rats; Compound 0.01 mg/kg as Drug 1, Drug 2 PCP (2 mg/kg, s.c.), pre-pulse 6 dB): 21.6 ± 10.7% | % PPI PP12 (Male Sprague-Dawley rats; Compound 0.01 mg/kg as Drug 1, Drug 2 PCP (2 mg/kg, s.c.), pre-pulse 12 dB): 51.8 ± 5.6% | % PPI PP3 (Male Sprague-Dawley rats; Compound 0.03 mg/kg as Drug 1, Drug 2 PCP (2 mg/kg, s.c.), pre-pulse 3 dB): 30.9 ± 7.4% | % PPI PP6 (Male Sprague-Dawley rats; Compound 0.03 mg/kg as Drug 1, Drug 2 PCP (2 mg/kg, s.c.), pre-pulse 6 dB): 46.2 ± 4.2%^⋄ | % PPI PP12 (Male Sprague-Dawley rats; Compound 0.03 mg/kg as Drug 1, Drug 2 PCP (2 mg/kg, s.c.), pre-pulse 12 dB): 53.6 ± 4.2% | % PPI PP3 (Male Sprague-Dawley rats; Compound 0.1 mg/kg as Drug 1, Drug 2 PCP (2 mg/kg, s.c.), pre-pulse 3 dB): 35.8 ± 7.0% | % PPI PP6 (Male Sprague-Dawley rats; Compound 0.1 mg/kg as Drug 1, Drug 2 PCP (2 mg/kg, s.c.), pre-pulse 6 dB): 39.6 ± 10.7% | % PPI PP12 (Male Sprague-Dawley rats; Compound 0.1 mg/kg as Drug 1, Drug 2 PCP (2 mg/kg, s.c.), pre-pulse 12 dB): 56.2 ± 5.6%^⋄ | % PPI PP3 (Male Sprague-Dawley rats; Compound 1 mg/kg as Drug 1, Drug 2 Amphetamine (4 mg/kg, s.c.), pre-pulse 3 dB): 49.6 ± 5.8%^⋄ | % PPI PP6 (Male Sprague-Dawley rats; Compound 1 mg/kg as Drug 1, Drug 2 Amphetamine (4 mg/kg, s.c.), pre-pulse 6 dB): 52.9 ± 4.3%^⋄ | % PPI PP12 (Male Sprague-Dawley rats; Compound 1 mg/kg as Drug 1, Drug 2 Amphetamine (4 mg/kg, s.c.), pre-pulse 12 dB): 65.7 ± 4.7%^⋄ | % PPI PP3 (Male Sprague-Dawley rats; Compound 1 mg/kg as Drug 1, Drug 2 PCP (2 mg/kg, s.c.), pre-pulse 3 dB): 48.8 ± 8.2%^⋄ | % PPI PP6 (Male Sprague-Dawley rats; Compound 1 mg/kg as Drug 1, Drug 2 PCP (2 mg/kg, s.c.), pre-pulse 6 dB): 45.0 ± 12.7% | % PPI PP3 (Male Sprague-Dawley rats; Compound as Drug 1 (dose not given), Drug 2 Vehicle, pre-pulse 3 dB): 60.4 ± 4.8%^⋄ | % PPI PP6 (Male Sprague-Dawley rats; Compound as Drug 1 (dose not given), Drug 2 Vehicle, pre-pulse 6 dB): 59.8 ± 2.2%^⋄ | % PPI PP12 (Male Sprague-Dawley rats; Compound as Drug 1 (dose not given), Drug 2 Vehicle, pre-pulse 12 dB): 75.5 ± 2.9%^⋄* | effect on PPI deficits induced by amphetamine or phencyclidine (in words) (Male Sprague-Dawley rats; deficits induced by amphetamine or phencyclidine): significantly rescue deficits in sensorimotor integration | AMBULATIONS (C57B/6 male mice [2]; ambulations indicative of hyperactivity): 4756.3 ± 1208.8 | FINE MOVEMENTS (C57B/6 male mice [2]; scored 60 min post-amphetamine, fine movements indicative of stereotypy): 904.5 ± 107.0^⋄

Clc1cccc(Cl)c1N=C1NCCN1 [Clonidine, reference compound]
% PPI PP3 (Male Sprague-Dawley rats; Clonidine 30 ug/kg as Drug 1, Drug 2 Amphetamine (4 mg/kg, s.c.), pre-pulse 3 dB): 31.0 ± 6.9% | % PPI PP6 (Male Sprague-Dawley rats; Clonidine 30 ug/kg as Drug 1, Drug 2 Amphetamine (4 mg/kg, s.c.), pre-pulse 6 dB): 40.7 ± 6.0% | % PPI PP12 (Male Sprague-Dawley rats; Clonidine 30 ug/kg as Drug 1, Drug 2 Amphetamine (4 mg/kg, s.c.), pre-pulse 12 dB): 53.5 ± 5.2% | % PPI PP3 (Male Sprague-Dawley rats; Clonidine 30 ug/kg as Drug 1, Drug 2 PCP (2 mg/kg, s.c.), pre-pulse 3 dB): 34.5 ± 8.2% | % PPI PP6 (Male Sprague-Dawley rats; Clonidine 30 ug/kg as Drug 1, Drug 2 PCP (2 mg/kg, s.c.), pre-pulse 6 dB): 55.1 ± 9.8% | % PPI PP12 (Male Sprague-Dawley rats; Clonidine 30 ug/kg as Drug 1, Drug 2 PCP (2 mg/kg, s.c.), pre-pulse 12 dB): 63.7 ± 7.4% | % PPI PP3 (Male Sprague-Dawley rats; Clonidine 30 ug/kg as Drug 1, Drug 2 Vehicle, pre-pulse 3 dB above background): 35.2 ± 15.7% | % PPI PP6 (Male Sprague-Dawley rats; Clonidine 30 ug/kg as Drug 1, Drug 2 Vehicle, pre-pulse 6 dB above background): 60.8 ± 3.0%^⋄ | % PPI PP12 (Male Sprague-Dawley rats; Clonidine 30 ug/kg as Drug 1, Drug 2 Vehicle, pre-pulse 12 dB above background): 54.7 ± 8.0%
